# According to patent EP2970215B1, “PYRROLIDINE DERIVATIVES, PHARMACEUTICAL COMPOSITIONS CONTAINING THEM, AND THEIR USE IN THERAPY” (AbbVie Deutschland GmbH & Co. KG, priority 2013, dated 2014):
# Target: T1, human GlyT1c transporter (Homo sapiens, UniProt P48067)
# T1 construct: expressed in transfected cells; host or cells: CHO cells (recombinant; line hGlyT1c_5_CHO is named for the uptake assay)
# T1 sequence (P48067 1-706): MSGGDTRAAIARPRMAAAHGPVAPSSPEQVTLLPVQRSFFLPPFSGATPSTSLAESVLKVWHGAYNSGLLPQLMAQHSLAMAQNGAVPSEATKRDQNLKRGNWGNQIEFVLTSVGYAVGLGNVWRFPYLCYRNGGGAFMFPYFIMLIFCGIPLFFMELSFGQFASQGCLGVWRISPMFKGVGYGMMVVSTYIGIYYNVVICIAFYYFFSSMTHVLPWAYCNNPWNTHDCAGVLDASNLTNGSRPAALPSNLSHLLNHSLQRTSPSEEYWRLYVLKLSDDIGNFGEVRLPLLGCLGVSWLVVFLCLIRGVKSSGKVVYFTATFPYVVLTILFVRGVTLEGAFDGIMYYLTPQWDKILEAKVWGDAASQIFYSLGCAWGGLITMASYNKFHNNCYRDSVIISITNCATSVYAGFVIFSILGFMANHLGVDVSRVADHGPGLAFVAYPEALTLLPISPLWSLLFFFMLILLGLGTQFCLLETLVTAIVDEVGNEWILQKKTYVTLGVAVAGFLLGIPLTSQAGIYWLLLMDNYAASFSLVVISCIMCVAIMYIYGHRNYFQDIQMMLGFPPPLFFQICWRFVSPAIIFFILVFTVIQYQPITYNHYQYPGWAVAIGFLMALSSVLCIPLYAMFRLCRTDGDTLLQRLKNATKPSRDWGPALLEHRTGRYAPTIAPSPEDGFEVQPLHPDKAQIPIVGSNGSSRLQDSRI
# Test: Radioligand binding assay using recombinant CHO cell membranes expressing human GlyT1
# Conditions: radioligand binding to human GlyT1c transporter-expressing membranes
# Text: 2. Radioligand binding assays using recombinant CHO cell membranes expressing human GlyT1: […]
row,Compound,Ki
1,"Cn1cnc(S(=O)(=O)N2C[C@@H](O)[C@H](Nc3cccc(Cl)c3)C2)c1 (relative stereo) [Example 373, Trans-4-[(3-chlorophenyl)amino]-1-[(1-methyl-1H-imidazol-4-yl)sulfonyl]pyrrolidin-3-ol]",≤ 10000 nM
2,"CCCCCCN[C@@H]1CN(S(=O)(=O)c2cn(C)cn2)C[C@H]1c1ncccc1F (relative stereo) [Example 762, Trans-4-(3-fluoropyridin-2-yl)-N-hexyl-1-[(1-methyl-1H-imidazol-4-yl)sulfonyl]pyrrolidin-3-amine]",≤ 100 nM
3,Cn1cnc(S(=O)(=O)N2C[C@H](NCc3cccc(C(F)(F)F)n3)[C@@H](c3ccccc3)C2)c1 [Example 552],≤ 10000 nM
4,"COc1ccc(S(=O)(=O)N2C[C@@H](Nc3cccc(C#N)c3)[C@H](c3ccccc3)C2)cc1 (relative stereo) [Example 137, 3-({trans-1-[(4-methoxyphenyl)sulfonyl]-4-phenylpyrrolidin-3-yl}amino)benzonitrile]",≤ 10000 nM
5,"Cn1cnc(S(=O)(=O)N2C[C@@H](C(=O)Nc3ccc(F)c(Cl)c3)[C@H](c3ccc(F)cc3)C2)c1 (relative stereo) [Example 275, trans-N-(3-chloro-4-fluorophenyl)-4-(4-fluorophenyl)-1-[(1-methyl-1H-imidazol-4-yl)sulfonyl]pyrrolidine-3-carboxamide]",≤ 1000 nM
6,"Cc1oncc1S(=O)(=O)N1CC(Nc2ccc(F)c(F)c2)C(c2ccccc2)C1 (centres unmarked) [Example 487, N-(3,4-difluorophenyl)-1-[(5-methyl-1,2-oxazol-4-yl)sulfonyl]-4-phenylpyrrolidin-3-amine]",≤ 10000 nM
7,"Cn1cnc(S(=O)(=O)N2C[C@@H](Nc3ccnc(C(F)(F)F)c3)[C@H](c3ccccc3)C2)c1 (relative stereo) [Example 211, N-{trans-1-[(1-methyl-1H-imidazol-4-yl)sulfonyl]-4-phenylpyrrolidin-3-yl}-2-(trifluoromethyl)pyridin-4-amine]",≤ 1000 nM
8,"Cc1nn(C)cc1S(=O)(=O)N1C[C@@H](NC(=O)c2cccc(C(F)(F)F)c2Cl)[C@H](c2ccccc2)C1 (relative stereo) [Example 42, 2-chloro-N-{trans-1-[(1,3-dimethyl-1H-pyrazol-4-yl)sulfonyl]-4-phenylpyrrolidin-3-yl}-3-(trifluoromethyl)benzamide]",≤ 10000 nM
9,"Cn1cnc(S(=O)(=O)N2C[C@@H](NC(=O)c3cccc(C(F)(F)F)c3Cl)[C@H](c3ccccc3Cl)C2)c1 (relative stereo) [Example 115, 2-chloro-N-{trans-4-(2-chlorophenyl)-1-[(1-methyl-1H-imidazol-4-yl)sulfonyl]pyrrolidin-3-yl}-3-(trifluoromethyl)benzamide]",≤ 100 nM
10,"Cn1cnc(S(=O)(=O)N2C[C@@H](Nc3ccc(F)cc3)[C@H](c3ccccc3F)C2)c1 (relative stereo) [Example 200, trans-4-(2-fluorophenyl)-N-(4-fluorophenyl)-1-[(1-methyl-1H-imidazol-4-yl)sulfonyl]pyrrolidin-3-amine]",≤ 1000 nM
11,"Cn1cnc(S(=O)(=O)N2C[C@@H](NC(=O)c3ccc(Cl)cc3Cl)[C@H](c3ccccc3)C2)c1 (relative stereo) [Example 26, 2,4-dichloro-N-{trans-1-[(1-methyl-1H-imidazol-4-yl)sulfonyl]-4-phenylpyrrolidin-3-yl}benzamide]",≤ 1000 nM
12,"Cn1cnc(S(=O)(=O)N2CC(Cc3cccc(Cl)c3)C(c3ccc(F)cc3)C2)c1 (centres unmarked) [Example 182, 4-{[3-(3-chlorobenzyl)-4-(4-fluorophenyl)pyrrolidin-1-yl]sulfonyl}-1-methyl-1H-imidazole]",≤ 100 nM
13,"Cn1cnc(S(=O)(=O)N2C[C@@H](Nc3cccc(C(F)(F)F)c3)[C@H](C3CC3)C2)c1 (relative stereo) [Example 337, Trans-4-cyclopropyl-1-[(1-methyl-1H-imidazol-4-yl)sulfonyl]-N-[3-(trifluoromethyl)phenyl]pyrrolidin-3-amine]",≤ 1000 nM
14,"Cn1cnc(S(=O)(=O)N2C[C@@H](Nc3ccc(Cl)cc3)[C@H](c3ccccc3F)C2)c1 (relative stereo) [Example 202, trans-N-(4-chlorophenyl)-4-(2-fluorophenyl)-1-[(1-methyl-1H-imidazol-4-yl)sulfonyl]pyrrolidin-3-amine]",≤ 1000 nM
15,"CCC(CCCN[C@H]1CN(S(=O)(=O)c2cn(C)cn2)C[C@@H]1c1ccccc1)OC (stereo partly drawn) [Example 648, (3R,4S)-N-(4-methoxyhexyl)-1-[(1-methyl-1H-imidazol-4-yl)sulfonyl]-4-phenylpyrrolidin-3-amine]",≤ 10000 nM
16,"O=C(N[C@@H]1CN(S(=O)(=O)c2ccc(C(F)(F)F)cc2)C[C@H]1c1ccccc1)c1cc(Cl)cc(Cl)c1 (relative stereo) [Example 142, 3,5-dichloro-N-[trans-4-phenyl-1-{[4-(trifluoromethyl)phenyl]sulfonyl}pyrrolidin-3-yl]benzamide]",≤ 10000 nM
17,"Cn1cnc(S(=O)(=O)N2C[C@H](NCc3cccc4ccnn34)[C@@H](c3ccccc3)C2)c1 [Example 555, (3R,4S)-1-[(1-methyl-1H-imidazol-4-yl)sulfonyl]-4-phenyl-N-(pyrazolo[1,5-a]pyridin-7-ylmethyl)pyrrolidin-3-amine]",≤ 10000 nM
18,"CCS(=O)(=O)N1C[C@@H](Nc2cccc(C#N)c2)[C@H](c2ccccc2)C1 (relative stereo) [Example 131, 3-{[trans-1-(ethylsulfonyl)-4-phenylpyrrolidin-3-yl]amino}benzonitrile]",> 10000 nM
19,"O=S(=O)(CC1CCCCO1)N1CC(Nc2ccc(F)c(F)c2)C(c2ccccc2)C1 (centres unmarked) [Example 498, N-(3,4-difluorophenyl)-4-phenyl-1-[(tetrahydro-2H-pyran-2-ylmethyl)sulfonyl]pyrrolidin-3-amine]",≤ 10000 nM
20,"Cn1cnc(S(=O)(=O)N2C[C@@H](COc3ccc(Cl)cc3Cl)[C@H](c3ccc(F)cc3)C2)c1 (relative stereo) [Example 246, 4-{[trans-3-[(2,4-dichlorophenoxy)methyl]-4-(4-fluorophenyl)pyrrolidin-1-yl]sulfonyl}-1-methyl-1H-imidazole]",≤ 100 nM
21,"Cn1cnc(S(=O)(=O)N2C[C@@H](C(=O)NCc3ccc(F)c(Cl)c3)[C@H](c3ccc(F)cc3)C2)c1 (relative stereo) [Example 642, Trans-N-(3-chloro-4-fluorobenzyl)-4-(4-fluorophenyl)-1-[(1-methyl-1H-imidazol-4-yl)sulfonyl]pyrrolidine-3-carboxamide]",≤ 10 nM
22,"Cn1cnc(S(=O)(=O)N2C[C@@H](Nc3cccc(F)c3)[C@H](c3ccccc3F)C2)c1 (relative stereo) [Example 199, trans-4-(2-fluorophenyl)-N-(3-fluorophenyl)-1-[(1-methyl-1H-imidazol-4-yl)sulfonyl]pyrrolidin-3-amine]",≤ 1000 nM
23,"Cn1cnc(S(=O)(=O)N2C[C@@H](Nc3ccc4ccncc4c3)[C@H](c3ccccc3)C2)c1 (relative stereo) [Example 241, N-{trans-1-[(1-methyl-1H-imidazol-4-yl)sulfonyl]-4-phenylpyrrolidin-3-yl}isoquinolin-7-amine]",≤ 10000 nM
24,"Cn1cnc(S(=O)(=O)N2C[C@@H](C(=O)NCc3ccc(F)c(F)c3)[C@H](c3ccc(F)cc3)C2)c1 (relative stereo) [Example 631, Trans-N-(3,4-difluorobenzyl)-4-(4-fluorophenyl)-1-[(1-methyl-1H-imidazol-4-yl)sulfonyl]pyrrolidine-3-carboxamide]",≤ 10 nM
25,"Cn1cnc(S(=O)(=O)N2C[C@@H](Nc3cccc(C(F)(F)F)n3)[C@H](c3ccccc3)C2)c1 (relative stereo) [Example 210, N-{trans-1-[(1-methyl-1H-imidazol-4-yl)sulfonyl]-4-phenylpyrrolidin-3-yl}-6-(trifluoromethyl)pyridin-2-amine]",≤ 10000 nM
26,"Cn1cnc(S(=O)(=O)N2C[C@H](OCCNc3ccc(Cl)cc3)[C@@H](c3ccc(F)cc3)C2)c1 [Example 740, 4-chloro-N-[2-({(3R,4S)-4-(4-fluorophenyl)-1-[(1-methyl-1H-imidazol-4-yl)sulfonyl]pyrrolidin-3-yl}oxy)ethyl]aniline]",≤ 10000 nM
27,"Cn1cnc(S(=O)(=O)N2C[C@@H](Nc3cc(C(F)(F)F)ccn3)[C@H](c3ccccc3)C2)c1 (relative stereo) [Example 212, N-{trans-1-[(1-methyl-1H-imidazol-4-yl)sulfonyl]-4-phenylpyrrolidin-3-yl}-4-(trifluoromethyl)pyridin-2-amine]",≤ 100 nM

# Same assay, conditions: radioligand binding, recombinant CHO cell membranes expressing human GlyT1c
row,Compound,Ki
1,"Cn1cnc(S(=O)(=O)N2C[C@@H](Nc3ccc(F)c(Cl)c3)[C@H](C3CCCCO3)C2)c1 (relative stereo) [Example 815, Trans-N-(3-chloro-4-fluorophenyl)-1-[(1-methyl-1H-imidazol-4-yl)sulfonyl]-4-(tetrahydro-2H-pyran-2-yl)pyrrolidin-3-amine]",≤ 100 nM
2,"Cn1cnc(S(=O)(=O)N2CC(Cc3cc(C(F)(F)F)ccn3)C(c3ccccc3)C2)c1 (centres unmarked) [Example 817, 2-({1-[(1-methyl-1H-imidazol-4-yl)sulfonyl]-4-phenylpyrrolidin-3-yl}methyl)-4-(trifluoromethyl)pyridine]",≤ 1000 nM
